# Data taken from US8192962B2, “Processes for detecting toxic substances” (Daikin Industries, Ltd., priority 2001, dated 2012).
# Tested on: Metabolism protein genes
# Experiment: DNA chip mRNA expression in yeast, metabolism protein genes (Table 7)
# Format: cell-based, Saccharomyces cerevisiae S288C
# Description: Yeast (Saccharomyces cerevisiae S288C (α SUC2mal mel gap2 CUP1)) were incubated at 25° C. on YPD medium (yeast extract 1%, polypepton 2%, glucose 2%). One of toxic chemical substances was added to the cells at logarithmic growth phase, and the cells were further incubated for two hours. Cells were cultured without any chemical substance in the same condition, and were used as control. Concentrations of the chemical substances were defined to inhibit the growth of the yeast but not lead to death.
# After completion of the incubation, the culture was centrifuged to collect the cells. To the cells, sodium acetate buffer (50 mM sodium acetate, 10 mM EDTA, 1% SDS) was added, and the mixture was shaken at 65° C. for five minutes, followed by returning to room temperature, and obtaining the supernatant, of which the procedures were repeated two times. To the supernatant, ½ amount of a solution of phenol/chloroform was added, and the mixture was centrifuged to give a supernatant, which was added with an equal amount of chloroform, and the mixture was centrifuged to give a supernatant. To the supernatant, an equal amount of isopropanol containing 0.3 M sodium acetate was added, and the mixture was allowed to stand at room temperature for 30 minutes, after which the mixture was centrifuged to give a sediment of the whole RNAs. Seventy % ethanol was added to the sediment, and the mixture was again centrifuged to give a sediment, which was then dried and dissolved in water. mRNA was isolated from the whole RNAs as followings. In view of the fact that a poly A chain is attached to the 3′ terminus of mRNA, a polynucleotide having a poly T structure which was immobilized on the surface of latex beads was used to trap the mRNA, and then the mRNA was washed and eluted with spine column (Oligotex-dT30<Super>mRNA Purification Kit, Takara). Reverse transcription of the mRNA was conducted with a reverse transcriptase (Super Script II Reverse Transcriptase; catalogue No. 18064-014, GibcoBRL) using fluorescence-labeled nucleotides to give cDNAs that were introduced with Cy3-dUTP or Cy5-dUTP during the reverse transcription.
# The labeled cDNAs were dissolved in TE buffer (10mM Tris-HCl/1 mM EDTA, pH8.0), and the solution was dropped on the DNA chip containing the whole genes of yeast (DNA Chip Research Inc. Japan) so that the cDNAs were hybridized on the DNA chip at 65° C. for over 12 hours. The fluoresces intensity of the DNA chip was read with a scanner, and the ratio relative to the fluorescence intensity resulting from the absence of chemical substance was estimated as the following, which is shown in Tables 1 to 9: […]
structure (smiles),measurement,setting,value
"Cl[C@H]1[C@H](Cl)[C@@H](Cl)[C@@H](Cl)[C@H](Cl)[C@H]1Cl [(7), γ-hexachlorocyclohexane]",The level of expressed mRNA in the presence of chemical substance/The level of expressed mRNA in the absence of chemical substance,yeast gene YKL035W,0.6
same,level of expressed mRNA in the presence/in the absence of chemical substance,yeast gene YKL060C,1.2
same,The level of expressed mRNA in the presence of chemical substance/The level of expressed mRNA in the absence of chemical substance,yeast gene YKL091C,1.9
same,The level of expressed mRNA in the presence of chemical substance/The level of expressed mRNA in the absence of chemical substance,yeast gene YKL104C,2.3
same,level of expressed mRNA in the presence/in the absence of chemical substance,yeast gene YKL148C,0.6
same,The level of expressed mRNA in the presence of chemical substance/The level of expressed mRNA in the absence of chemical substance,yeast gene YKL152C,1.5
same,level of expressed mRNA in the presence/in the absence of chemical substance,yeast gene YKL157W,1.9
same,The level of expressed mRNA in the presence of chemical substance/The level of expressed mRNA in the absence of chemical substance,yeast gene YKL213C,1.0
same,The level of expressed mRNA in the presence of chemical substance/The level of expressed mRNA in the absence of chemical substance,yeast gene YKL215C,1.1
same,level of expressed mRNA in the presence/in the absence of chemical substance,yeast gene YKR034W,0.7
same,The level of expressed mRNA in the presence of chemical substance/The level of expressed mRNA in the absence of chemical substance,yeast gene YKR039W,1.0
same,The level of expressed mRNA in the presence of chemical substance/The level of expressed mRNA in the absence of chemical substance,yeast gene YLL058W,1.5
same,level of expressed mRNA in the presence/in the absence of chemical substance,yeast gene YLR006C,1.1
same,level of expressed mRNA in the presence/in the absence of chemical substance,yeast gene YLR044C,1.3
same,level of expressed mRNA in the presence/in the absence of chemical substance,yeast gene YLR056W,0.8
same,level of expressed mRNA in the presence/in the absence of chemical substance,yeast gene YLR058C,0.5
same,level of expressed mRNA in the presence/in the absence of chemical substance,yeast gene YLR081W,0.7
same,level of expressed mRNA in the presence/in the absence of chemical substance,yeast gene YLR089C,1.6
same,The level of expressed mRNA in the presence of chemical substance/The level of expressed mRNA in the absence of chemical substance,yeast gene YLR180W,0.6
same,The level of expressed mRNA in the presence of chemical substance/The level of expressed mRNA in the absence of chemical substance,yeast gene YLR273C,1.2
same,level of expressed mRNA in the presence/in the absence of chemical substance,yeast gene YLR284C,0.8
same,The level of expressed mRNA in the presence of chemical substance/The level of expressed mRNA in the absence of chemical substance,yeast gene YLR299W,0.8
same,The level of expressed mRNA in the presence of chemical substance/The level of expressed mRNA in the absence of chemical substance,yeast gene YLR300W,0.5
same,level of expressed mRNA in the presence/in the absence of chemical substance,yeast gene YLR304C,0.6
same,The level of expressed mRNA in the presence of chemical substance/The level of expressed mRNA in the absence of chemical substance,yeast gene YLR307W,1.5
same,The level of expressed mRNA in the presence of chemical substance/The level of expressed mRNA in the absence of chemical substance,yeast gene YLR348C,0.9
same,level of expressed mRNA in the presence/in the absence of chemical substance,yeast gene YLR354C,1.1
same,level of expressed mRNA in the presence/in the absence of chemical substance,yeast gene YLR372W,0.2
same,level of expressed mRNA in the presence/in the absence of chemical substance,yeast gene YML022W,0.6
same,The level of expressed mRNA in the presence of chemical substance/The level of expressed mRNA in the absence of chemical substance,yeast gene YML054C,1.2
same,The level of expressed mRNA in the presence of chemical substance/The level of expressed mRNA in the absence of chemical substance,yeast gene YML070W,3.1
same,The level of expressed mRNA in the presence of chemical substance/The level of expressed mRNA in the absence of chemical substance,yeast gene YML100W,2.2
same,The level of expressed mRNA in the presence of chemical substance/The level of expressed mRNA in the absence of chemical substance,yeast gene YMR008C,0.9
same,level of expressed mRNA in the presence/in the absence of chemical substance,yeast gene YMR011W,0.8
same,level of expressed mRNA in the presence/in the absence of chemical substance,yeast gene YMR015C,0.4
same,The level of expressed mRNA in the presence of chemical substance/The level of expressed mRNA in the absence of chemical substance,yeast gene YMR020W,2.7
same,level of expressed mRNA in the presence/in the absence of chemical substance,yeast gene YMR083W,1.7
same,The level of expressed mRNA in the presence of chemical substance/The level of expressed mRNA in the absence of chemical substance,yeast gene YMR105C,2.8
same,The level of expressed mRNA in the presence of chemical substance/The level of expressed mRNA in the absence of chemical substance,yeast gene YMR189W,0.8
same,level of expressed mRNA in the presence/in the absence of chemical substance,yeast gene YMR205C,0.9
same,level of expressed mRNA in the presence/in the absence of chemical substance,yeast gene YMR261C,1.3
same,The level of expressed mRNA in the presence of chemical substance/The level of expressed mRNA in the absence of chemical substance,yeast gene YMR271C,3.4
same,The level of expressed mRNA in the presence of chemical substance/The level of expressed mRNA in the absence of chemical substance,yeast gene YMR296C,0.6
same,level of expressed mRNA in the presence/in the absence of chemical substance,yeast gene YMR323W,1.1
same,The level of expressed mRNA in the presence of chemical substance/The level of expressed mRNA in the absence of chemical substance,yeast gene YNL012W,2.0
same,level of expressed mRNA in the presence/in the absence of chemical substance,yeast gene YNL025C,1.2
same,The level of expressed mRNA in the presence of chemical substance/The level of expressed mRNA in the absence of chemical substance,yeast gene YNL045W,1.8
same,The level of expressed mRNA in the presence of chemical substance/The level of expressed mRNA in the absence of chemical substance,yeast gene YNL104C,0.6
same,The level of expressed mRNA in the presence of chemical substance/The level of expressed mRNA in the absence of chemical substance,yeast gene YNL106C,0.9
same,The level of expressed mRNA in the presence of chemical substance/The level of expressed mRNA in the absence of chemical substance,yeast gene YNL169C,0.7
same,level of expressed mRNA in the presence/in the absence of chemical substance,yeast gene YNL192W,1.0
same,The level of expressed mRNA in the presence of chemical substance/The level of expressed mRNA in the absence of chemical substance,yeast gene YNL231C,2.5
same,The level of expressed mRNA in the presence of chemical substance/The level of expressed mRNA in the absence of chemical substance,yeast gene YNL322C,0.9
same,The level of expressed mRNA in the presence of chemical substance/The level of expressed mRNA in the absence of chemical substance,yeast gene YNL331C,1.9
same,The level of expressed mRNA in the presence of chemical substance/The level of expressed mRNA in the absence of chemical substance,yeast gene YNL332W,2.1
same,The level of expressed mRNA in the presence of chemical substance/The level of expressed mRNA in the absence of chemical substance,yeast gene YNR019W,0.8
same,The level of expressed mRNA in the presence of chemical substance/The level of expressed mRNA in the absence of chemical substance,yeast gene YNR033W,1.2
same,The level of expressed mRNA in the presence of chemical substance/The level of expressed mRNA in the absence of chemical substance,yeast gene YNR059W,1.6
same,The level of expressed mRNA in the presence of chemical substance/The level of expressed mRNA in the absence of chemical substance,yeast gene YOL058W,0.4
same,level of expressed mRNA in the presence/in the absence of chemical substance,yeast gene YOL086C,1.9
same,level of expressed mRNA in the presence/in the absence of chemical substance,yeast gene YOL108C,1.1
same,level of expressed mRNA in the presence/in the absence of chemical substance,yeast gene YOL116W,1.5
same,The level of expressed mRNA in the presence of chemical substance/The level of expressed mRNA in the absence of chemical substance,yeast gene YOL126C,1.4
same,The level of expressed mRNA in the presence of chemical substance/The level of expressed mRNA in the absence of chemical substance,yeast gene YOL153C,3.3
same,level of expressed mRNA in the presence/in the absence of chemical substance,yeast gene YOL156W,1.0
same,The level of expressed mRNA in the presence of chemical substance/The level of expressed mRNA in the absence of chemical substance,yeast gene YOL165C,1.4
same,level of expressed mRNA in the presence/in the absence of chemical substance,yeast gene YOR002W,1.0
same,level of expressed mRNA in the presence/in the absence of chemical substance,yeast gene YOR085W,0.6
same,The level of expressed mRNA in the presence of chemical substance/The level of expressed mRNA in the absence of chemical substance,yeast gene YOR099W,1.0
same,level of expressed mRNA in the presence/in the absence of chemical substance,yeast gene YOR103C,1.2
same,level of expressed mRNA in the presence/in the absence of chemical substance,yeast gene YOR108W,1.2
same,level of expressed mRNA in the presence/in the absence of chemical substance,yeast gene YOR128C,0.7
same,The level of expressed mRNA in the presence of chemical substance/The level of expressed mRNA in the absence of chemical substance,yeast gene YOR130C,1.3
same,level of expressed mRNA in the presence/in the absence of chemical substance,yeast gene YOR142W,1.0
same,level of expressed mRNA in the presence/in the absence of chemical substance,yeast gene YOR176W,0.5
same,level of expressed mRNA in the presence/in the absence of chemical substance,yeast gene YOR178C,0.9
same,level of expressed mRNA in the presence/in the absence of chemical substance,yeast gene YOR251C,1.0
same,The level of expressed mRNA in the presence of chemical substance/The level of expressed mRNA in the absence of chemical substance,yeast gene YOR336W,1.2
same,The level of expressed mRNA in the presence of chemical substance/The level of expressed mRNA in the absence of chemical substance,yeast gene YOR347C,0.9
same,level of expressed mRNA in the presence/in the absence of chemical substance,yeast gene YOR348C,0.8
same,The level of expressed mRNA in the presence of chemical substance/The level of expressed mRNA in the absence of chemical substance,yeast gene YPL017C,1.4
same,level of expressed mRNA in the presence/in the absence of chemical substance,yeast gene YPL028W,1.3
same,level of expressed mRNA in the presence/in the absence of chemical substance,yeast gene YPL057C,0.6
same,level of expressed mRNA in the presence/in the absence of chemical substance,yeast gene YPL135W,1.2
same,level of expressed mRNA in the presence/in the absence of chemical substance,yeast gene YPL148C,1.0
same,The level of expressed mRNA in the presence of chemical substance/The level of expressed mRNA in the absence of chemical substance,yeast gene YPR026W,1.3
same,level of expressed mRNA in the presence/in the absence of chemical substance,yeast gene YPR113W,1.2
same,level of expressed mRNA in the presence/in the absence of chemical substance,yeast gene YPR165W,1.0
same,The level of expressed mRNA in the presence of chemical substance/The level of expressed mRNA in the absence of chemical substance,yeast gene YPR167C,1.2
same,level of expressed mRNA in the presence/in the absence of chemical substance,yeast gene YPR183W,1.2
